Measurements reported in patent publication US9617225B2 (VIROSTATICS SRL, priority 2012, dated 2017).
pIC50: −log10 of the molar value. Like-named read-outs stand apart in the source and are kept apart here.

Assays:
[1] = biological target: human CDK9/CyclinT kinase complex (Homo sapiens (Human), UniProt P50750); experiment: In Vitro CDK9/CyclinT Assay (IMAP fluorescent polarization); type: biochemical
How it was run: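 Phosphorylation of 400 nM TAMRA-Rbtide (15-mer retinoblastoma-derived peptide) by 5 nM CDK9/CyclinT with 12 μM ATP (=Kmapp) in 20 mM MOPS pH 7, 1 mM DTT, 10 mM MgCl2, 0.01% Tween 20. Reaction run 1 hour at room temperature, stopped with IMAP beads; read by fluorescence polarization.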

[2] = tested on: laboratory strain of HIV-1; experiment: Antiviral Activity Against HIV (AV), p24 in infected activated primary T cells; type: cell-based; conditions: for pIC50: read-out: AV50, Table 5; for antiviral and antiproliferative activity and cytotoxicity profile / anti-HIV and cytotoxicity profile: summary in words
Method: Antiviral Activity Against HIV (AV)
Activated primary T cells are infected with a laboratory strain of HIV-1, then cultured and exposed to different concentrations of the test compounds. HIV replication is analysed by measuring the viral protein p24 and expressed as percentage of untreated control. Inhibition of viral replication (AV) is then calculated (AV=100 minus the % p24 compared to control, AV of control=0%). Inhibitory concentration 50% for antiviral activity (AV50) is calculated.

Primary T cells = experiment: Cytotoxicity, viability by flow cytometry; type: cell-based
Method: Primary T cells are cultured and treated with different concentrations of the test compound. Viability is analysed by measuring through flow cytometry based techniques the percentage of viable cells, compared to untreated control=100%).

[3] = Table 4, toxic dose 50%, viable cells

Chain of human CDK9/CyclinT kinase complex (P50750 whole entry): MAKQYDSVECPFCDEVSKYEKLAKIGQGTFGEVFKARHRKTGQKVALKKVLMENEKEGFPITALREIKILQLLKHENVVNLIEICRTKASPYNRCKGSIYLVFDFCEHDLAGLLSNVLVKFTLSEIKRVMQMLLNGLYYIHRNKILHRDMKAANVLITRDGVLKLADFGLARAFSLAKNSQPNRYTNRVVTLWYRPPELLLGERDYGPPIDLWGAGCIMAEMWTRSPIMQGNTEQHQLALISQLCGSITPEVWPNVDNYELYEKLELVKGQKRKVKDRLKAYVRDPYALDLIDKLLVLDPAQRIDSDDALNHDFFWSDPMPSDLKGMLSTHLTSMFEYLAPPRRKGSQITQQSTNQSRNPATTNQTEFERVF
Chain of human CDK9/CyclinT kinase complex (O60563 whole entry partner): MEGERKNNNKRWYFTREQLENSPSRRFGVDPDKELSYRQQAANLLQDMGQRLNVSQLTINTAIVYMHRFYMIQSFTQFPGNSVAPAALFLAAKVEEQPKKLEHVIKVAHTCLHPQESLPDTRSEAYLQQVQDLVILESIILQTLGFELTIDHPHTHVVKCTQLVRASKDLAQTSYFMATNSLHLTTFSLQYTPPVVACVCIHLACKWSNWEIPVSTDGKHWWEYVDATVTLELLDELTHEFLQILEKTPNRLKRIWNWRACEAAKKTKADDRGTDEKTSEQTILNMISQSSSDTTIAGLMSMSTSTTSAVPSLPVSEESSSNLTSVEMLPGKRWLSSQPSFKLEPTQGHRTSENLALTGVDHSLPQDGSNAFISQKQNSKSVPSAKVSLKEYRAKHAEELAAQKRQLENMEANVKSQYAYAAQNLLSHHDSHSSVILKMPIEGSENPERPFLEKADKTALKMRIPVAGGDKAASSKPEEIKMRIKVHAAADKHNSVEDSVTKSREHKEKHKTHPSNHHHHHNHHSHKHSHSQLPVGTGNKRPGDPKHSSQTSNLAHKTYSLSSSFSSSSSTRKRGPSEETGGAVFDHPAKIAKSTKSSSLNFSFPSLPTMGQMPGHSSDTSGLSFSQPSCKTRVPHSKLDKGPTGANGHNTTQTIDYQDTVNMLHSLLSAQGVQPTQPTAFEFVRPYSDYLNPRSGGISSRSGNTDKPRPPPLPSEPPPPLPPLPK

Row | Compound | pIC50 ([1]; Table 1) | antiviral and antiproliferative activity and cytotoxicity profile [2] | TD50 (Primary T cells) | also measured
1 | COc1ccc(Nc2cc(-c3ccccc3OC)ncn2)cc1CN1C(=O)c2ccccc2C1=O [Example 3, 2-(2-Methoxy-5-(6-(2-methoxyphenyl)pyrimidin-4-ylamino)benzyl)isoindoline-1,3-dione] |  |  |  | pIC50 [1]: > 6.00; pIC50 [2]: < 6.00; TD50 (Primary T cells; [3]): >5 µM; TD50 (Primary T cells; Table 5): >5 µM
2 | COc1ccccc1-c1cc(Nc2ccc(N(C)C)cc2)ncn1 [Example 5, N^1-(6-(2-methoxyphenyl)pyrimidin-4-yl)-N^4,N^4-dimethylbenzene-1,4-diamine] | > 6.00 | good antiviral and antiproliferative activity and a good cytotoxicity profile |  | TD50 (Primary T cells; [3]): >10 µM
3 | CNS(=O)(=O)Nc1cc(Nc2cc(-c3ccccc3OC)ncn2)ccc1OC [Example 10, (2-Methoxy-5-(6-(2-methoxyphenyl)pyrimidin-4-ylamino)phenyl)(methylsulfamoyl)amine] | > 7.00 | good antiviral and antiproliferative activity and a good cytotoxicity profile | 3 µM | 
4 | COc1ccccc1-c1cc(Nc2ccc(OC)c([N+](=O)[O-])c2)ncn1 [Example 11, N-(4-Methoxy-3-nitrophenyl)-6-(2-methoxyphenyl)pyrimidin-4-amine] | > 6.00 |  | >1.5 µM | pIC50 ([1]; Table 5): > 6.00; pIC50 [2]: < 5.82
5 | COc1ccccc1-c1cc(Nc2ccc(O)c([N+](=O)[O-])c2)ncn1 [Example 12, 4-(6-(2-methoxyphenyl)pyrimidin-4-ylamino)-2-nitrophenol] | > 6.00 |  | >1.5 µM | pIC50 ([1]; Table 5): > 6.00; pIC50 [2]: < 5.82
6 | COc1ccc(Nc2cc(-c3ccccc3OC)ncn2)cc1NS(=O)(=O)NC1CCCCC1 [Example 13, (2-Methoxy-5-(6-(2-methoxyphenyl)pyrimidin-4-ylamino)phenyl) (cyclohexylsulfamoyl)amine] | > 6.00 | good antiviral and antiproliferative activity and a good cytotoxicity profile | 5 µM | 
7 | COc1ccccc1-c1cc(Nc2ccc(Cl)c(Cn3cnc4ccccc43)c2)ncn1 [Example 16, N-(3-((1H-benzo[d]imidazol-1-yl)methyl)-4-chlorophenyl)-6-(2-methoxyphenyl)pyrimidin-4-amine] |  | good antiviral and antiproliferative activity and a good cytotoxicity profile | 1.5 µM | pIC50 [1]: > 7.00
8 | COc1ccc(Nc2cc(-c3ccccc3OC)ncn2)cc1OC(=O)C(C)(C)C [Example 26, 2-methoxy-5-(6-(2-methoxyphenyl)pyrimidin-4-ylamino)phenyl pivalate] |  | good antiviral and antiproliferative activity and a good cytotoxicity profile | 6 µM | pIC50 [1]: > 5.00
9 | COc1ccc(F)cc1-c1cc(Nc2cc(F)c(OC)c(C(N)=O)c2)ncn1 [Example 140, 3-Fluoro-5-[6-(5-fluoro-2-methoxy-phenyl)-pyrimidin-4-ylamino]-2-methoxy-benzamide] | > 5.00 |  | >20 µM | 
10 | CCOc1ccc(F)cc1-c1cc(Nc2cc(C(N)=O)c(OC)cc2F)ncn1 [Example 148, 5-[6-(2-Ethoxy-5-fluoro-phenyl)-pyrimidin-4-ylamino]-4-fluoro-2-methoxy-benzamide] | > 5.00 |  | 1 µM | 
11 | CN1CC[C@H](c2c(O)cc(O)c3c(=O)cc(-c4ccccc4Cl)oc23)[C@H](O)C1 [Flavopiridol, reference compound] |  |  | 0.1 µM | anti-HIV and cytotoxicity profile [2]: poor
12 | CC[C@H](CO)Nc1nc(NCc2ccccc2)c2ncn(C(C)C)c2n1 [Roscovitine, reference compound] |  |  |  | anti-HIV and cytotoxicity profile [2]: poor; TD50 (Primary T cells; [3]): 8 µM
